In patent publication US12097199B2, “Administration of SUMO-activating enzyme inhibitor and anti-CD20 antibodies” (Takeda Pharmaceutical Company Limited, priority 2018, dated 2024):

Key:
[1] = tested on: OCI-Ly10 human diffuse large B-cell lymphoma xenograft; test: Study 1: OCI-Ly10 xenograft model, in vivo tumor efficacy; parameters: species or system SCID mice; details: for TGI %: Day 21; for dAUC: unit assumed
Experimental: OCI-Ly 10 Study 1: OCI-Ly 10 is a human diffuse large B-cell lymphoma cell-line derived xenograft. 6 week old female SCID mice (Beijing HFK Bioscience Co., Ltd.) were inoculated subcutaneously in the right flank (cell suspension) with 4×10^6 OCI-Ly10 cells. When the mean tumor volume reached approximately 200 mm^3, the animals were randomized into treatment and control groups (n=7/group). Tumor growth inhibition and body weight change were calculated on Day 21 of treatment.
(§1) Final doses received were 25 mg/kg or 15 mg/kg, respectively.
(§2) Tumors were measured twice weekly using vernier calipers. Tumor volumes were calculated using standard procedures V=W^2×L/2, where V=volume, W=width, and L=length for the tumor xenograft. […] Tumor size and body weight were measured twice a week for the duration of the study. Mice were euthanized when the average tumor volume of a treatment or control group reached approximately 1000 mm^3 or when an individual tumor exceeded the humane end-point for size.
(§3) These values were compared across treatment groups to assess whether the differences in the trends over time were statistically significant. To compare pairs of treatment groups, the following mixed-effects linear regression model was fit to the data using the maximum likelihood method: Yijk−Yi0k=Yi0k+treati+dayi+dayj^2+(treat*day)ij+(treat*day^2)ij+eijk (1) where Yijk is the log10 tumor value at the j^th time point of the k^th animal in the i^th treatment, Yi0k is the day 0 (baseline) log10 tumor value in the k^th animal in the i^th treatment, day, was the median-centered time point and (along with dayj^2) was treated as a continuous variable, and eijk is the residual error. A spatial power law covariance matrix was used to account for the repeated measurements on the same animal over time. Interaction terms as well as dayj^2 terms were removed if they were not statistically significant.
(§4) The predicted differences in the log tumor values (Yijk−Yi0k, which can be interpreted as log10 (fold change from day 0)) were taken from the above models to calculate mean AUC values for each treatment group. A dAUC value was then calculated as: […]
(§5) For synergy analyses, the observed differences in the log tumor values were used to calculate AUC values for each animal. […] The AUC for the control, or vehicle, group was calculated using the predicted values from the pairwise models described above. We defined a measure of synergy as follows:
(§6) The effect was classified into four different categories. It was considered synergistic if the synergy score was less than 0 and additive if the synergy score wasn't statistically different from 0.
(§7) One group served as the vehicle-treated group (Group 1) receiving IV treatment with the vehicle for I-263a (20% HPβCD) on a QW schedule.

[2] = tested on: PHTX-166L human patient-derived B-cell lymphoma primary xenograft; test: Study 5: PHTX-166L primary xenograft model, in vivo tumor efficacy; parameters: species or system mice; details: for TGI %: Day 11
Experimental: PHTX-166L Study 5: PHTX-166L is a human patient-derived B-cell lymphoma primary xenograft. Small tumor pieces measuring approximately 2 mm×2 mm were implanted subcutaneousy on the right flank via trocar injection. When the mean tumor volume reached approximately 160 mm^3, the animals were randomized into treatment groups and control groups (n=7/group). Tumor growth inhibition and body weight change were calculated on Day 11 of treatment. Tumor volumes below the humane end-point for size were continually monitored following the end of treatment (post-treatment period) until Day 146 post treatment initiation.
as §2, §3, §4, §5, §6
In the PHTX-166L patient-derived primary B-cell lymphoma xenograft model, mice were inoculated, randomized on Day 0 (24 days post inoculation), and treatments began on Day 1 for all groups. […] One group served as the vehicle-treated group (Group 1) receiving IV treatment with the vehicle for I-263a (20% HPβCD) on a QW schedule.

[3] = tested on: OCI-Ly10 human diffuse large B-cell lymphoma xenograft; test: Study 2: OCI-Ly10 xenograft model, in vivo tumor efficacy; parameters: species or system SCID mice; details: for TGI %: Day 21
Experimental: OCI-Ly10 Study 2: OCI-Ly 10 is a human diffuse large B-cell lymphoma cell-line derived xenograft. 8 week old female SCID mice (Beijing HFK Bioscience Co., Ltd.) were inoculated subcutaneously in the right flank (cell suspension) with 4×10^6 OCI-Ly 10 cells. When the mean tumor volume reached approximately 200 mm^3, the animals were randomized into treatment and control groups (n=8/group). Tumor growth inhibition and body weight change were calculated on Day 21 of treatment.
Final doses received were 10 mg/kg or 5 mg/kg, respectively.
as §2, §3, §4, §5, §6
In the OCI-Ly 10 diffuse large B-cell lymphoma xenograft model, mice were inoculated, randomized on Day 0 (30 days post inoculation), and treatments began on Day 1 for all groups. […] One group served as the vehicle-treated group (Group 1) receiving IV treatment with the vehicle for I-263a (20% HPβCD) on a QW schedule.

[4] = tested on: TMD8 human diffuse large B-cell lymphoma xenograft; test: Study 4: TMD8 xenograft model, in vivo tumor efficacy; parameters: species or system SCID mice; details: for TGI %: Day 18
Experimental: TMD8 Study 4: TMD8 is a human diffuse large B-cell lymphoma cell-line derived xenograft. 8 week old female SCID mice (Beijing HFK Bioscience Co., Ltd) were inoculated subcutaneously in the right flank (cell suspension with 4×10^6 cells). When the mean tumor volume reached approximately 190 mm^3, the animals were randomized into treatment groups and control groups (n=8/group). Tumor growth inhibition and body weight change were calculated on Day 18 of treatment. Tumor volumes below the humane end-point for size were continually monitored following the end of treatment (post-treatment period) for an additional week.
as §1, §2, §3, §4, §5, §6
In the TMD8 diffuse large B-cell lymphoma xenograft model, mice were inoculated, randomized on Day 0 (10 days post inoculation), and treatments began on Day 1 for all groups. […] One group served as the vehicle-treated group (Group 1) receiving IV treatment with the vehicle for I-263a (20% HPβCD) on a QW schedule.

[5] = target: SUMO-activating enzyme (Homo sapiens, UniProt Q9UBT2); test: Biochemical assays of SUMO-activating enzyme inhibition
From the text: (§8) SAE inhibitors, as disclosed herein, are described, for example, in US 2016/0009744 and U.S. Pat. No. 9,695,154. They may be prepared by methods known to one skilled in the art and/or according to the methods described in US 2016/0009744 and U.S. Pat. No. 9,695,154, which is hereby incorporated by reference in its entirety. Central to the mechanism of action of useful SAE inhibitors, such as Compound I-263a, in combinations and methods of the present disclosure is production of type 1 IFNs and induction of an innate immune response with activation of both natural killer (NK) cells and macrophages.

[6] = tested on: SUMO-activating enzyme and SUMOylation; test: Inhibition of SAE and SUMOylation in cultured tumor cell lines; format: cell-based; details: cultured mouse and human tumor cell lines
From the text: as §8

[7] = tested on: PHTX-166L human patient-derived primary B-cell lymphoma xenograft; test: Study 6: PHTX-166L primary xenograft model, in vivo tumor efficacy; parameters: species or system mice
Experimental: Small tumor pieces measuring approximately 2 mm×2 mm were implanted subcutaneousy on the right flank via trocar injection.
as §2, §3, §4, §5, §6, §7

[8] = tested on: WSU-DLCL2 human diffuse large B-cell lymphoma xenograft; test: Study 3: WSU-DLCL2 xenograft model, in vivo tumor efficacy; parameters: species or system SCID mice
Experimental: WSU-DLCL2 Study 3: WSU-DLCL2 is a human diffuse large B-cell lymphoma cell-line derived xenograft. 7 week old female SCID mice (Charles River Laboratories) were inoculated subcutaneously in the right flank (cell suspension with 4.0×10^6 cells). When the mean tumor volume reached approximately 200 mm^3, the animals were randomized into treatment groups and control groups (n=8/group). Tumor growth inhibition and body weight change were calculated on Day 21 of treatment. Tumor volumes below the humane end-point for size were continually monitored following the end of treatment (post-treatment period) for an additional week.
as §2, §3, §4, §5, §6
In the WSU-DLCL2 diffuse large B-cell lymphoma xenograft model, mice were inoculated, randomized on Day 0 (8 days post inoculation), and treatments began on Day 1 for all groups. […] One group served as the vehicle-treated group (Group 1) receiving IV treatment with the vehicle for I-263a (20% HPβCD) on a QW schedule.

[9] = single-agent I-263a (25 and 15 mg/kg)
[10] = Group C: I-263a 12.5 mg/kg IV QW
[11] = Group B: I-263a 5.0 mg/kg IV QW

Chain of SUMO-activating enzyme (Q9UBT2 whole entry): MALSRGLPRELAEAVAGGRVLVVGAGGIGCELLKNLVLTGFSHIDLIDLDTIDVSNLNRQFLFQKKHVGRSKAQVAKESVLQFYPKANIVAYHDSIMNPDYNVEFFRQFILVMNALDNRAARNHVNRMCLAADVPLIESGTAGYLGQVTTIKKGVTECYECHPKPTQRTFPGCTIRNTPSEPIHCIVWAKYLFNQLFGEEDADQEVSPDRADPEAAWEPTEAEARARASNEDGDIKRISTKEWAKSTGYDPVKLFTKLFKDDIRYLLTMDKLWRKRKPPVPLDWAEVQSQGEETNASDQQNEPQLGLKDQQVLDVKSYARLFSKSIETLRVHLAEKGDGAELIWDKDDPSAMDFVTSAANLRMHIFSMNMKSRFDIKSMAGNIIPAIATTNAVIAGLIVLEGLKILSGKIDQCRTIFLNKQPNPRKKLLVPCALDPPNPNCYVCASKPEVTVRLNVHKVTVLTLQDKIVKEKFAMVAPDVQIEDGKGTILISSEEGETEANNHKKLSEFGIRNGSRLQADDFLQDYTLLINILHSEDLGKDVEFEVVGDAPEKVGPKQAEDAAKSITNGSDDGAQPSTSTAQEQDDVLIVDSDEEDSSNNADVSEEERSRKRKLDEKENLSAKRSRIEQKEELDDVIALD
Chain of SUMO-activating enzyme (Q9UBE0 whole entry partner): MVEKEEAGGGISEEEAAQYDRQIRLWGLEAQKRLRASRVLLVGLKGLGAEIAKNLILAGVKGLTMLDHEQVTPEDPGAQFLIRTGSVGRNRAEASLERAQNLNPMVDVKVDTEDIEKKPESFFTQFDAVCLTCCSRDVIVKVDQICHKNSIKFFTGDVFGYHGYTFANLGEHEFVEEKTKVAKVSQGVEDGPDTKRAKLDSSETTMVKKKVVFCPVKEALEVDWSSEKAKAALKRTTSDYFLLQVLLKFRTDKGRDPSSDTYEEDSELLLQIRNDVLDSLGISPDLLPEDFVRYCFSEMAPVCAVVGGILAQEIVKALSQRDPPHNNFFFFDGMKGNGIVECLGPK
Chain of SUMO-activating enzyme (P63165 1-97 partner limits assumed): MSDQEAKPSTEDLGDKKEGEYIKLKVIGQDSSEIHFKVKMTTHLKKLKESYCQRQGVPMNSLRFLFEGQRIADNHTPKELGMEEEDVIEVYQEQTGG

## Cc1sc(C(=O)c2cncnc2N[C@@H]2C[C@H](COS(N)(=O)=O)[C@@H](O)C2)cc1[C@@H]1NCCc2ccc(Cl)cc21 [Compound I-263a, [(1R,2S,4R)-4-{[5-({4-[(1R)-7-chloro-1,2,3,4-tetrahydroisoquinolin-1-yl]-5-methyl-2-thienyl}carbonyl)pyrimidin-4-yl]amino}-2-hydroxycyclopentyl]methyl sulfamate]
[1]; Group B: I-263a 25 mg/kg IV QW
  Days to 1000 mm^3 MTV: 39 days
  Tumor volume on Day 21 (±SEM): 409.7 ± 19.2 mm^3
  TGI %: 31.3%
  dAUC: 23.6%
[1]; Group C: I-263a 15 mg/kg IV QW
  Days to 1000 mm^3 MTV: 37.6 days
  Tumor volume on Day 21 (±SEM): 443.7 ± 12.3 mm^3
  TGI %: 25.6%
  dAUC: 21.4%
[1]; [9]
  Day by which all mice were euthanized (group reached 1000 mm^3 or humane end-point for size): ≤ 120 days
[2]; Group B: I-263a 25 mg/kg IV QW
  Days to 1000 mm^3 MTV: >18 days
  dAUC: 45.0
  TGI %: 72%
[2]; Group B: I-263a 25 mg/kg IV QW (Days 1 and 8)
  Tumor volume on Day 11 (±SEM): 540.2 ± 58.5 mm^3
[2]; [10]
  Days to 1000 mm^3 MTV: 13.2 days
  dAUC: 35.4
  TGI %: 60.6%
[2]; Group C: I-263a 12.5 mg/kg IV QW (Days 1 and 8)
  Tumor volume on Day 11 (±SEM): 758.2 ± 104.7 mm^3
[3]; Group B: I-263a 10 mg/kg IV QW
  Days to 1000 mm^3 MTV: 32.1 days
  Tumor volume on Day 21 (±SEM): 706.9 ± 51.3 mm^3
  dAUC: 25.6
  TGI %: 41.3%
[3]; Group C: I-263a 5 mg/kg IV QW
  Days to 1000 mm^3 MTV: 28.7 days
  Tumor volume on Day 21 (±SEM): 759.3 ± 33.2 mm^3
  dAUC: 26.8
  TGI %: 37%
[3]; single-agent I-263a (10 and 5 mg/kg)
  Day by which all mice were euthanized (group reached 1000 mm^3 or humane end-point for size): ≤ 35 days
[4]; Group B: I-263a 25 mg/kg IV QW
  Days to 1000 mm^3 MTV: 14.1 days
  Tumor volume on Day 18 (±SEM): 1297.4 ± 120.2 mm^3
  dAUC: 13.6
  TGI %: 27.8%
[4]; Group C: I-263a 15 mg/kg IV QW
  Days to 1000 mm^3 MTV: 12.8 days
  Tumor volume on Day 18 (±SEM): 1604.1 ± 144.7 mm^3
  dAUC: 10.1
  TGI %: 10.7%
[4]; [9]
  Day by which all mice were euthanized (group reached 1000 mm^3 or humane end-point for size): ≤ 120 days
[5]; mechanism-based inhibitor forming a covalent adduct with SUMO
  Inhibition of SUMO-activating enzyme activity: potently inhibits enzyme activity
[5]; over ubiquitin-activating enzyme, Nedd8-activating enzyme, and autophagy related 7 enzyme
  Selectivity for SUMO-activating enzyme: Strong selectivity
[6]
  Inhibition of SUMO-activating enzyme and SUMOylation in cells: Selective and potent inhibition
[7]; [11]
  Days to 1000 mm^3 MTV: 9.1 days
  dAUC: 34.3
[7]; Group B: I-263a 5.0 mg/kg IV QW (Days 1 and 8)
  Tumor volume on Day 9 (±SEM): 992.2 ± 115.2 mm^3
[7]; Group B: I-263a 5.0 mg/kg IV QW, Day 9
  TGI %: 51.4%
[8]; Group B: I-263a 5 mg/kg IV QW
  Days to 1000 mm^3 MTV: 17.2 days
  Tumor volume on Day 21 (±SEM): 1340.3 ± 188.1 mm^3
  dAUC: 28.1
[8]; Group B: I-263a 5 mg/kg IV QW, Day 21
  TGI %: 37.6%
[8]; single-agent I-263a 5 mg/kg
  Day by which all mice were euthanized (group reached 1000 mm^3 or humane end-point for size): ≤ 24 days
